Experimental data from patent US20260078111A1, “CARBONIC ANHYDRASE ENZYME INHIBITORS AND METHODS OF USE THEREOF” (RUTGERS, THE STATE UNIVERSITY OF NEW JERSEY, priority 2022, published 2026).
pIC50: −log10 of the molar value. Read-outs that look alike come from different tables or passages of the source.

How the values were obtained:
[1] = tested on: mast cell development from murine bone marrow cells; assay: In vitro mast cell development culture assay (IL-3, flow cytometry); type: cell-based, mice; conditions: for Percent Inhibition at 10 μm: in vitro mast cell cultures; for inhibition at 15 µM: read-out: POI (percent of inhibition based on MC numbers)
Protocol: To further test the ability of 4-(3-hydroxy-1-(4-methoxybenzyl)-2-oxoindolin-3-yl)benzenesulfonamide to inhibit mast cell development, an established mast cell culture assay was employed (Henry, E. K., et al., J Exp Med, 2016. 213(9): p. 1663-73). As a positive control for mast cell development, bone marrow cells were isolated from the femur of mice and cultured in the presence of 10 ng/mL of IL-3 and vehicle (1:10, DMSO/RPMI complete media) for seven days and mast cells were identified by flow cytometric analysis as (c-Kit+ FceRIa+ CD49b− cells).
In vitro Mast Cell development: Briefly, 1×10^6 bone marrow-resident progenitor cells were isolated from the femur of mice and cultured in complete media supplemented with 10 ng/mL of rIL-3 for a period of […]. Mast cells were identified by their expression of the surface molecules FcεRIα and c-Kit via flow cytometric analysis. In addition to IL-3, cultures were treated with vehicle or increasing concentrations of Car enzyme inhibitors at the indicated concentrations.

recombinant human Car1 = recombinant human Car1 (Homo sapiens, UniProt P00915); assay: Stopped-flow assay of Car1 enzyme inhibition (IC50); type: biochemical
recombinant human Car1, sequence (P00915 whole entry): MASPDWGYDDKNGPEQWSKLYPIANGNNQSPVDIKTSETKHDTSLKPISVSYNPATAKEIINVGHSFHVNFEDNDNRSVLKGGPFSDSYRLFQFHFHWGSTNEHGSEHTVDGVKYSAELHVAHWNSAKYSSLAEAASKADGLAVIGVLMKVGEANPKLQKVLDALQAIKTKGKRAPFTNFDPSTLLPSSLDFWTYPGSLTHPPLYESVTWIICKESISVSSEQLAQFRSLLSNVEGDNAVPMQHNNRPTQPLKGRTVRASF
Protocol: Stopped-flow: IC50 values were established using an SX20 stopped-flow spectrometer from […]. In one syringe of the SX20, recombinant human Car1 was kept at a concentration of 9 μM in a sodium phosphate buffer and inhibitors were added to this solution at 0 nM, 10 nM, 20 nM, 80 nM and 100 nM. In a second syringe, a saturated CO2 solution was mixed with 0.2 mM phenol red. This series of dilutions allow for the evaluation of how quickly Car1 can metabolize the CO2 in the absence of an inhibitor and for the determination of whether that process is inhibited as increasing concentrations of compounds are added.

[2] = Mus musculus, Mast cell, Table 3, at 15 uM

## CN1C(=O)C(O)(c2ccc(S(N)(=O)=O)cc2)c2ccccc21 (stereo not drawn)
[1]
  Percent Inhibition at 10 μm: 84%

## NS(=O)(=O)c1ccc(C2(O)C(=O)N(Cc3ccc(F)cc3)c3ccccc32)cc1 (stereo not drawn)
[1]
  Percent Inhibition at 10 μm: 98%

## NS(=O)(=O)c1ccc(C2(O)C(=O)Nc3ccccc32)cc1 (stereo not drawn)
[1]
  Percent Inhibition at 10 μm: 94%

## CCN1C(=O)C(O)(c2ccc(S(N)(=O)=O)cc2)c2ccccc21 (stereo not drawn)
[1]
  Percent Inhibition at 10 μm: 99%

## CCN1C(=O)C(F)(c2ccc(S(N)(=O)=O)cc2)c2ccccc21 (stereo not drawn)
[1]
  Percent Inhibition at 10 μm: 99%

## NS(=O)(=O)c1ccc(C2(F)C(=O)N(Cc3ccc(F)cc3)c3ccccc32)cc1 (stereo not drawn)
[1]
  Percent Inhibition at 10 μm: 98%

## CN1C(=O)C(F)(c2ccc(S(N)(=O)=O)cc2)c2ccccc21 (stereo not drawn)
[1]
  Percent Inhibition at 10 μm: 100%

## COc1ccc(CN2C(=O)C(F)(c3ccc(S(N)(=O)=O)cc3)c3ccccc32)cc1 (stereo not drawn)
[1]
  Percent Inhibition at 10 μm: 99%

## NS(=O)(=O)c1ccc(C2(O)C(=O)N(Cc3ccc(OC(F)F)cc3)c3ccccc32)cc1 (stereo not drawn) [NEM-4A, 4-[1-[[4-(difluoromethoxy)phenyl]methyl]-3-hydroxy-2-oxo-indolin-3-yl]benzenesulfonamide]
[1]; Mus musculus, Mast cell
  inhibition at 15 µM: 82%

## NS(=O)(=O)c1ccc(C2(O)C(=O)N(Cc3ccc(F)c(F)c3)c3ccccc32)cc1 (stereo not drawn) [NEM-9A, 4-[1-[(3,4-difluorophenyl)methyl]-3-hydroxy-2-oxo-indolin-3-yl]benzenesulfonamide]
Recombinant human Car1
  pIC50: 7.29
[1]; [2]
  inhibition at 15 µM: 18%

## NS(=O)(=O)c1ccc(C2(O)C(=O)N(Cc3cc[n+]([O-])cc3)c3ccccc32)cc1 (stereo not drawn) [NEM-10A, 4-[3-hydroxy-1-[(1-oxidopyridin-1-ium-4-yl)methyl]-2-oxo-indolin-3-yl]benzenesulfonamide]
Recombinant human Car1
  pIC50: 7.47
[1]; [2]
  inhibition at 15 µM: 11%

## NS(=O)(=O)c1ccc(C2(O)C(=O)N(CC3CCOCC3)c3ccccc32)cc1 (stereo not drawn) [NEM-12A, 4-[3-hydroxy-2-oxo-1-(tetrahydropyran-4-ylmethyl)indolin-3-yl]benzenesulfonamide]
Recombinant human Car1
  pIC50: 7.20
[1]; [2]
  inhibition at 15 µM: 6%

## COc1ccc(N2C(=O)C(O)(c3ccc(S(N)(=O)=O)cc3)c3ccccc32)cc1 (stereo not drawn) [NEM-13A, 4-[3-hydroxy-1-(4-methoxyphenyl)-2-oxo-indolin-3-yl]benzenesulfonamide]
[1]; Mus musculus, Mast cell
  inhibition at 15 µM: 87%

## NS(=O)(=O)c1ccc(C2(O)C(=O)N(Cc3ccc(N4CCOCC4)cc3)c3ccccc32)cc1 (stereo not drawn) [NEM-14A, 4-[3-hydroxy-1-[(4-morpholinophenyl)methyl]-2-oxo-indolin-3-yl]benzenesulfonamide]
Recombinant human Car1
  pIC50: 7.47
[1]; 10 uM
  inhibition of mast cell numbers (POI) compared to MZ at 126 uM: comparable inhibition of mast cell numbers with the control, MZ, at 126 uM
[1]; 15 uM
  inhibition of mast cell numbers (POI) compared to MZ at 126 uM: significantly higher inhibition than MZ at 126 uM
[1]; [2]
  inhibition at 15 µM: 98%

## COc1ccc2c(N3C(=O)C(O)(c4ccc(S(N)(=O)=O)cc4)c4ccccc43)cccc2c1 (stereo not drawn) [NEM-15A, 4-[3-hydroxy-1-(6-methoxy-1-naphthyl)-2-oxo-indolin-3-yl]benzenesulfonamide]
Recombinant human Car1
  pIC50: 7.45
[1]; 10 uM
  inhibition of mast cell numbers (POI) compared to MZ at 126 uM: significantly higher inhibition of mast cell numbers than MZ at 126 uM
[1]; 15 uM
  inhibition of mast cell numbers (POI) compared to MZ at 126 uM: significantly higher inhibition of mast cell numbers than MZ at 126 uM
[1]; [2]
  inhibition at 15 µM: 100%

## NS(=O)(=O)c1ccc(C2(O)C(=O)N(Cc3ccc(N4CCCCC4)cc3)c3ccccc32)cc1 (stereo not drawn) [NEM-19A, 4-[3-hydroxy-2-oxo-1-[[4-(1-piperidyl)phenyl]methyl]indolin-3-yl]benzenesulfonamide]
[1]; Mus musculus, Mast cell
  inhibition at 15 µM: 99%

## NS(=O)(=O)c1ccc(C2(O)C(=O)N(Cc3ccc(N4CCC(F)(F)CC4)cc3)c3ccccc32)cc1 (stereo not drawn) [NEM-20A, 4-[1-[[4-(4,4-difluoro-1-piperidyl)phenyl]methyl]-3-hydroxy-2-oxo-indolin-3-yl]benzenesulfonamide]
[1]; Mus musculus, Mast cell
  inhibition at 15 µM: 100%

## NS(=O)(=O)c1ccc(C2(O)C(=O)N(Cc3ccc(C4CCNCC4)cc3)c3ccccc32)cc1 (stereo not drawn) [NEM-21A, 4-[3-hydroxy-2-oxo-1-[[4-(4-piperidyl)phenyl]methyl]indolin-3-yl]benzenesulfonamide]
[1]; Mus musculus, Mast cell
  inhibition at 15 µM: 81%

## NS(=O)(=O)c1ccc(C2(O)C(=O)N(Cc3ccc(N4CCNCC4)cc3)c3ccccc32)cc1 (stereo not drawn) [NEM-22A, 4-[3-hydroxy-2-oxo-1-[(4-piperazin-1-ylphenyl)methyl]indolin-3-yl]benzenesulfonamide]
[1]; Mus musculus, Mast cell
  inhibition at 15 µM: 53%

## NS(=O)(=O)c1ccc(C2(O)C(=O)N(Cc3ccc(-c4ccncc4)cc3)c3ccccc32)cc1 (stereo not drawn) [NEM-23A, 4-[3-hydroxy-2-oxo-1-[[4-(4-pyridyl)phenyl]methyl]indolin-3-yl]benzenesulfonamide]
Recombinant human Car1
  pIC50: 7.11
[1]; 100 nM, titration, FIG. 3
  inhibition of mast cell numbers: inhibits mast cell numbers
[1]; 5 uM
  inhibition of mast cell numbers (POI) compared to MZ at 126 uM: comparable level than MZ at 126 uM
[1]; 10 uM
  inhibition of mast cell numbers (POI) compared to MZ at 126 uM: comparable level than MZ at 126 uM
[1]; 15 uM
  inhibition of mast cell numbers (POI) compared to MZ at 126 uM: comparable level than MZ at 126 uM
[1]; Mus musculus, Mast cell, 250 nM, titration, FIG. 3, read-out: inhibition of mast cell numbers
  inhibition at 0.25 µM: ~50%
[1]; [2]
  inhibition at 15 µM: 99%

## NS(=O)(=O)c1ccc(C2(O)C(=O)N(Cc3ccc(N4CCCC4)cc3)c3ccccc32)cc1 (stereo not drawn) [NEM-24A, 4-[3-hydroxy-2-oxo-1-[(4-pyrrolidin-1-ylphenyl)methyl]indolin-3-yl]benzenesulfonamide]
Recombinant human Car1
  pIC50: 7.35
[1]; [2]
  inhibition at 15 µM: 99%

## NS(=O)(=O)c1ccc(C2(O)C(=O)N(Cc3ccc(-n4ccnc4)cc3)c3ccccc32)cc1 (stereo not drawn) [NEM-25A, 4-[3-hydroxy-1-[(4-imidazol-1-ylphenyl)methyl]-2-oxo-indolin-3-yl]benzenesulfonamide]
[1]; Mus musculus, Mast cell
  inhibition at 15 µM: 87%

## NS(=O)(=O)c1ccc(C2(O)C(=O)N(Cc3ccc4ncccc4c3)c3ccccc32)cc1 (stereo not drawn) [NEM-26A, 4-[3-hydroxy-2-oxo-1-(6-quinolylmethyl)indolin-3-yl]benzenesulfonamide]
[1]; Mus musculus, Mast cell
  inhibition at 15 µM: 82%

## NS(=O)(=O)c1ccc(C2(O)C(=O)N(c3ccc(Br)cc3)c3ccccc32)cc1 (stereo not drawn) [NEM-27A, 4-[1-(4-bromophenyl)-3-hydroxy-2-oxo-indolin-3-yl]benzenesulfonamide]
[1]; Mus musculus, Mast cell
  inhibition at 15 µM: 94%

## CC(C)(C)OC(=O)N1CCC(c2ccc(CN3C(=O)C(O)(c4ccc(S(N)(=O)=O)cc4)c4ccccc43)cc2)CC1 (stereo not drawn) [NEM-30A, tert-butyl 4-[4-[[3-hydroxy-2-oxo-3-(4-sulfamoylphenyl)indolin-1-yl]methyl]phenyl]piperidine-1-carboxylate]
[1]; Mus musculus, Mast cell
  inhibition at 15 µM: 100%

## CC(C)(C)OC(=O)N1CCN(c2ccc(CN3C(=O)C(O)(c4ccc(S(N)(=O)=O)cc4)c4ccccc43)cc2)CC1 (stereo not drawn) [NEM-32A, tert-butyl 4-[4-[[3-hydroxy-2-oxo-3-(4-sulfamoylphenyl)indolin-1-yl]methyl]phenyl]piperazine-1-carboxylate]
[1]; Mus musculus, Mast cell
  inhibition at 15 µM: 100%

## NS(=O)(=O)c1ccc(C2(O)C(=O)N(c3cccc4cc(F)ccc34)c3ccccc32)cc1 (stereo not drawn) [NEM-34A, 4-[1-(6-fluoro-1-naphthyl)-3-hydroxy-2-oxo-indolin-3-yl]benzenesulfonamide]
[1]; Mus musculus, Mast cell
  inhibition at 15 µM: 99%

## NS(=O)(=O)c1ccc(C2(O)C(=O)N(c3cccc4cc(Cl)ccc34)c3ccccc32)cc1 (stereo not drawn) [NEM-35A, 4-[1-(6-chloro-1-naphthyl)-3-hydroxy-2-oxo-indolin-3-yl]benzenesulfonamide]
[1]; Mus musculus, Mast cell
  inhibition at 15 µM: 99%

## NS(=O)(=O)c1ccc(C2(O)C(=O)N(c3cccc4cc(N5CCOCC5)ccc34)c3ccccc32)cc1 (stereo not drawn) [NEM-36A, 4-[3-hydroxy-1-(6-morpholino-1-naphthyl)-2-oxo-indolin-3-yl]benzenesulfonamide]
[1]; Mus musculus, Mast cell
  inhibition at 15 µM: 91%

## NS(=O)(=O)c1ccc(C2(O)C(=O)N(c3cccc4cc5c(cc34)OCO5)c3ccccc32)cc1 (stereo not drawn) [NEM-37A, 4-(1-benzo[f][1,3]benzodioxol-5-yl-3-hydroxy-2-oxo-indolin-3-yl)benzenesulfonamide]
Recombinant human Car1
  pIC50: 8.28
[1]; [2]
  inhibition at 15 µM: 100%

## NS(=O)(=O)c1ccc(C2(O)C(=O)N(c3cccc4cnccc34)c3ccccc32)cc1 (stereo not drawn) [NEM-38A, 4-[3-hydroxy-1-(5-isoquinolyl)-2-oxo-indolin-3-yl]benzenesulfonamide]
[1]; Mus musculus, Mast cell
  inhibition at 15 µM: 63%

## NS(=O)(=O)c1ccc(C2(O)C(=O)N(Cc3ccc4c(c3)OCO4)c3ccccc32)cc1 (stereo not drawn) [NEM-41A, 4-[1-(1,3-benzodioxol-5-ylmethyl)-3-hydroxy-2-oxo-indolin-3-yl]benzenesulfonamide]
[1]; Mus musculus, Mast cell
  inhibition at 15 µM: 64%

## NS(=O)(=O)c1ccc(C2(O)C(=O)N(Cc3ccc(-c4ccnc(C(F)(F)F)c4)cc3)c3ccccc32)cc1 (stereo not drawn) [NEM-45A, 4-[3-hydroxy-2-oxo-1-[[4-[2-(trifluoromethyl)-4-pyridyl]phenyl]methyl]indolin-3-yl]benzenesulfonamide]
[1]; Mus musculus, Mast cell
  inhibition at 15 µM: 100%

## COc1ccc(CN2C(=O)C(O)(c3ccc(S(N)(=O)=O)cc3)c3ccccc32)cc1 (stereo not drawn) [drawing 86]
[1]
  Percent Inhibition at 10 μm: 91%
